Paper PMC5460289, “Identification of New Shikonin Derivatives as Antitumor Agents Targeting STAT3 SH2 Domain” (Scientific Reports, 2017)

How the values were obtained:
[1] = MTT anti-proliferation assay, non-tumorigenic cells; format: cell-based; conditions: human, non-tumorigenic MCF-10A cells, 24 h treatment
Experimental: (§1) Initial experiments were performed for evaluation of growth inhibition by the new compounds against six human breast cancer cell lines, including MCF-7 (ER+/PR+, HER-2-), BT474 (ER+/PR+, HER-2+), SKBR-3 (ER-/PR-/HER-2+), MDA-MB-436 (ER-/PR-/HER-2-), MDA-MB-231 (ER-/PR-/HER-2-), MDA-MB-468 (ER-/PR-/HER-2-) and non-tumorigenic MCF-10A cells. After 24 h treatment by the obtained compounds, the inhibition was assessed and the IC50 was summarized. […] Subsequently, the inhibition of STAT3 activation by PMM-172 and Stattic was evaluated using a dual-luciferase assay.
(§2) The anti-proliferative activities of the prepared compounds against MCF-7 (ER+/PR+, HER-2-), BT474 (ER+/PR+, HER-2+), SKBR-3 (ER-/PR-/HER-2+), MDA-MB-436 (ER-/PR-/HER-2-), MDA-MB-231 (ER-/PR-/HER-2-), MDA-MB-468 (ER-/PR-/HER-2-) and non-tumorigenic MCF-10A cell lines were evaluated using a standard (MTT)-based colorimetric assay with some modification. Cell lines were grown to log phase in DMEM supplemented with 10% fetal bovine serum. Cell suspensions were prepared and 100 μL/well dispensed into 96-well plates giving 10^4 cells/well. The subsequent incubation was permitted at 37 °C, 5% CO2 atmosphere for 24 h to allow the cells to reattach. Subsequently, cells were treated with the target compounds at increasing concentrations in the presence of 10% FBS for 24 h. Then, cell viability was assessed by the conventional 3-(4, 5-dimethylthiazol-2-yl)-2, 5-diphenyltetrazolium bromide (MTT) reduction assay and carried out strictly according to the manufacturer instructions. The absorbance (OD570) was read on an ELISA reader (Tecan, Austria). In all experiments, three replicate wells were used for each drug concentration. Each assay was carried out for at least three times.

BT-474 = assay: MTT anti-proliferation assay; format: cell-based, human
Experimental: as §1, §2

MCF-7 = assay: MTT anti-proliferation assay; format: cell-based, human
Experimental: as §1, §2

MDA-MB-231 = assay: MTT anti-proliferation assay; format: cell-based, human
Experimental: as §1, §2

MDA-MB-436 = assay: MTT anti-proliferation assay; format: cell-based, human
Experimental: as §1, §2

MDA-MB-468 = assay: MTT anti-proliferation assay; format: cell-based, human
Experimental: as §1, §2

SKBR-3 = assay: MTT anti-proliferation assay; format: cell-based, human
Experimental: as §1, §2

[2] = tested on: STAT3-TATA-Luc reporter in MDA-MB-231 cells; assay: STAT3 dual-luciferase reporter assay; format: cell-based, human; conditions: MDA-MB-231, 24 h treatment
Experimental: Figure 3 MDA-MB-231 cells were transfected with STAT3-TATA-Luc reporter and Renilla luciferase reporter plasmids. After 24 h, cells were treated with indicated concentrations of PMM-172 or Stattic for 24 h and then luciferase intensity was measured. Results are fold change ± SD of three independent experiments, *P < 0.05, **P < 0.01.
Cells were seeded in 24 well plates and transiently transfected together with STAT3 reporter plasmid 4 × M67 pTATA TK-Luc (0.2 μg/per well, Addgene, USA) and Renilla luciferase control reporter plasmid pRL-CMV (0.1 μg/per well, promega, USA), using lipofectamine 2000 (Invitrogen, USA). Then the cells were incubated with complete medium for 24 h with PMM-172 or Stattic. Following the treatment, the cells were harvested in 100 μL of passive lysis buffer (Promega, USA) in each well. A 25 μL aliquot of cell lysate was subjected to a luciferase assay by using the dual-luciferase assay kit (Promega, USA). STAT3 luciferase activity was measured by EnVision Mutilabel Reader (Perkin Elmer, USA). Relative luciferase activity was calculated after the activity of STAT3-dependent firefly luciferase had been normalized to that of Renilla luciferase. All values are expressed as - fold induction relative to basal activity.

[3] = tested on: pSTAT3 (Tyr705) in MDA-MB-231 cells; assay: Western blot of constitutive STAT3 activation; format: cell-based, human
Excerpt: It has been well recognized that the aberrant activation of STAT3 contributes to malignant transformation and tumorgenesis, and its activity is ultimately dependent upon phosphorylation of residue Y705. […] In this study, the ability of PMM-172 and Stattic inhibiting the constitutive STAT3 activation in MDA-MB-231 cells was investigated. […] We further measured STAT3 phosphorylation at Tyr705 in a time-course experiment.
Figure 6 (A) PMM-172 suppressed constitutive pSTAT3 (Tyr705) in a dose-dependent manner. (B) PMM-172 suppressed constitutive pSTAT3 (Tyr705) in a time-dependent manner. (C) MDA-MB-231 cells were treated with IL-6 (20 ng/mL) or vehicle for 30 min, with or without pretreatment with PMM-172 (2 μM) for 24 h. PMM-172 inhibited IL-6 induced phosphorylation of STAT3. (D) Stattic suppressed constitutive pSTAT3 (Tyr705) in a dose-dependent manner. (E) Stattic suppressed constitutive pSTAT3 (Tyr705) in a time-dependent manner. (F) Tyrosine phosphorylation of two STAT family proteins STAT1 and STAT5 were detected with specific antibodies. […] Data were shown as mean ± SD of three independent experiments. *P < 0.05, **P < 0.01. Cropped blots/gels were used in the figure and the gels had been run under the same experimental conditions; the full-length blots/gels are presented in Supplementary Figure S2.
Cells were rinsed twice with cold PBS and then lysed with RIPA buffer containing a protease inhibitor mixture at 1:100 dilution on ice for 30 min. Insoluble components of cell lysates were removed by centrifugation (4 °C, 12000 rmp, 10 min), and protein concentrations were measured using a Pierce BCA protein assay kit. Proteins were separated by sodium dodecyl sulfate-polyacrylamide gel electrophoresis (SDS-PAGE) and transferred from the gel onto polyvinylidene difluoride (PVDF) membranes. The membranes were blocked with 5% skim milk in TBST buffer for 1 h at room temperature, and then incubated with corresponding primary antibodies diluted in 5% milk-TBST solution at 4 °C with gentle shaking overnight. After washing five times (5 min each), corresponding HRP-conjugated secondary antibodies were incubated for 1 h at room temperature. Immunoreactive bands were visualized using an ECL detection kit (Invitrogen, USA) following the manufacturer’s instruction.

[4] = tested on: STAT3 nuclear localization in MDA-MB-231 cells; assay: STAT3 nuclear localization (cytoplasmic and nuclear extracts, Western blot); format: cell-based, human; conditions: MDA-MB-231, 24 h
Experimental: It is known that the dimerization of STAT3 is induced by the phosphorylation at residue Tyr 705, which then leads to its nuclear translocation. Herein, we investigated the effect of PMM-172 and Stattic on STAT3 nuclear translocation. The cytoplasmic and nuclear proteins of treated cells were extracted and the expressions of STAT3 in both fractions were examined.
Figure 7 MDA-MB-231 cells were treated with indicated concentrations of PMM-172 or Stattic for 24 h, the expression levels of STAT3 in cytoplasmic and nuclear extracts were examined and relative expression levels were analyzed by Image J software. β-actin and Lamin B1 served as markers of cytoplasmic and nuclear extractions, respectively. […] (C) MCF-10A cells were treated with the indicated concentrations of PMM-172 for 24 h. PMM-172 had no effect on the level of the pSTAT3 level in MCF-10A cells. […] Data were shown as mean ± SD from three independent experiments, **P < 0.01. Cropped blots/gels were used in the figure and the gels had been run under the same experimental conditions; the full-length blots/gels are presented in Supplementary Figure S3.
To examine the relative proportion of STAT3 in the cytoplasm and nucleus, cytoplasmic and nuclear extracts were prepared. In brief, control and treated cells were collected and suspended in a buffer containing 10 mM HEPES (pH 7.9), 10 mM KCl, 0.1 mM EDTA (pH 8.0), 0.1 mM EGTA (pH 7.0), 1 mM DTT, 0.5 mM PMSF, 2 μg/mL leupeptin, 2 μg/mL aprotonin, 0.5 mg/mL benzamidine. After 15 min, NP-40 (0.25%) was added, and cell lysate was vortexed for 10 s and centrifuged at 10000 rmp at 4 °C for 1 min. […] The protein content in the nuclear and cytoplasmic fractions was determined using a Pierce BCA protein assay kit.
Cells were rinsed twice with cold PBS and then lysed with RIPA buffer containing a protease inhibitor mixture at 1:100 dilution on ice for 30 min. Insoluble components of cell lysates were removed by centrifugation (4 °C, 12000 rmp, 10 min), and protein concentrations were measured using a Pierce BCA protein assay kit. […]

[5] = Homo sapiens, BT-474, 24 h treatment
[6] = Homo sapiens, MCF7, 24 h treatment
[7] = Homo sapiens, MDA-MB-231, 24 h treatment
[8] = Homo sapiens, MDA-MB-436, 24 h treatment
[9] = Homo sapiens, MDA-MB-468, 24 h treatment
[10] = Homo sapiens, SK-BR-3, 24 h treatment

| IC50 (BT-474; [5]) [µM] | IC50 (MCF-7; [6]) [µM] | IC50 (MDA-MB-231; [7]) [µM] | IC50 (MDA-MB-436; [8]) [µM] | IC50 (MDA-MB-468; [9]) [µM] | IC50 (SKBR-3; [10]) [µM] | IC50 (BT-474; 24 h treatment) [µM] | IC50 (MCF-7; 24 h treatment) [µM] | IC50 (MDA-MB-436; 24 h treatment) [µM] | IC50 (MDA-MB-468; 24 h treatment) [µM] | IC50 (SKBR-3; 24 h treatment) [µM] | SMILES | CC50 at 24 h [1] [µM] | IC50 (MDA-MB-231; 24 h treatment) [µM] | IC50 (MDA-MB-231; Homo sapiens, MDA-MB-231, 24 h, 24 h treatment) [µM] | STAT3 luciferase activity [2] | STAT3 expression [3] | STAT3 phosphorylation at Tyr705, time-course [3] | level of Y705-phosphorylated STAT3 (constitutive), dose series [3] | level of STAT3 in the nuclear fraction [4] |
| --- | --- | --- | --- | --- | --- | --- | --- | --- | --- | --- | --- | --- | --- | --- | --- | --- | --- | --- | --- |
| 12.7 ± 1.06 | 9.73 ± 1.03 | 4.31 ± 0.65 | 6.88 ± 0.73 | 8.44 ± 0.78 | 8.27 ± 0.69 | – | – | – | – | – | COc1ccccc1-c1nnc(SCC(=O)O[C@H](CC=C(C)C)C2=CC(=O)c3c(O)ccc(O)c3C2=O)o1 [PMM-170, (R)-1-(5,8-dihydroxy-1,4-dioxo-1,4-dihydronaphthalen-2-yl)-4-methylpent-3-en-1-yl 2-((5-(2-methoxyphenyl)-1,3,4-oxadiazol-2-yl)thio)acetate] | 94.6 ± 0.83 | – | – | – | – | – | – | – |
| 6.03 ± 0.71 | 5.58 ± 0.83 | 2.59 ± 0.19 | 4.06 ± 0.53 | 3.76 ± 0.88 | 3.59 ± 0.49 | – | – | – | – | – | CC(C)=CC[C@@H](OC(=O)CSc1nnc(-c2ccc(C)cc2)o1)C1=CC(=O)c2c(O)ccc(O)c2C1=O [PMM-173, (R)-1-(5,8-dihydroxy-1,4-dioxo-1,4-dihydronaphthalen-2-yl)-4-methylpent-3-en-1-yl 2-((5-(p-tolyl)-1,3,4-oxadiazol-2-yl)thio)acetate] | 88.9 ± 0.34 | – | – | – | – | – | – | – |
| – | – | – | – | – | – | 5.11 ± 0.57 | 5.85 ± 0.72 | 3.76 ± 0.5 | 3.54 ± 0.42 | 3.39 ± 0.56 | O=[N+]([O-])c1ccc2c(c1)S(=O)(=O)C=C2 [Stattic, reference compound] | – | 3.18 ± 0.33 | – | only a slight advantage over PMM-172 | had no effect on STAT3 expression | reduced with the longer treatment | could reduce the level of Y705-phosphorylated STAT3 in MDA-MB-231 cells in a dose-dependent manner | suppressed STAT3 nuclear localization |

| SMILES | IC50 (BT-474; [5]) [µM] | IC50 (MCF-7; [6]) [µM] | IC50 (MDA-MB-231; [7]) [µM] | IC50 (MDA-MB-436; [8]) [µM] | IC50 (MDA-MB-468; [9]) [µM] | IC50 (SKBR-3; [10]) [µM] | IC50 (BT-474; 24 h treatment) [µM] | IC50 (MCF-7; 24 h treatment) [µM] | IC50 (MDA-MB-436; 24 h treatment) [µM] | IC50 (MDA-MB-468; 24 h treatment) [µM] | IC50 (SKBR-3; 24 h treatment) [µM] | CC50 at 24 h [1] [µM] | IC50 (MDA-MB-231; 24 h treatment) [µM] | IC50 (MDA-MB-231; Homo sapiens, MDA-MB-231, 24 h, 24 h treatment) [µM] | STAT3 luciferase activity [2] | STAT3 expression [3] | STAT3 phosphorylation at Tyr705, time-course [3] | level of Y705-phosphorylated STAT3 (constitutive), dose series [3] | level of STAT3 in the nuclear fraction [4] |
| --- | --- | --- | --- | --- | --- | --- | --- | --- | --- | --- | --- | --- | --- | --- | --- | --- | --- | --- | --- |
| CC(C)=CC[C@@H](O)C1=CC(=O)c2c(O)ccc(O)c2C1=O [Shikonin, shikonin] | 5.74 ± 0.66 | 4.57 ± 0.69 | – | 3.28 ± 0.41 | 3.61 ± 0.34 | 3.75 ± 0.52 | – | – | – | – | – | 23.5 ± 1.01 | 2.88 ± 0.25 | 3.28 ± 0.41 | – | – | – | – | – |
